According to US20260184712A1, “Heterocyclic Compounds as ENT Inhibitors and Compounds for Use in the Treatment of Cancers” (iTeos Belgium SA, priority 2022, published 2026):
Like-named read-outs stand apart in the source and are kept apart here.

Target: T1, human ENT1 (Homo sapiens, UniProt Q99808)
T1 construct: JAR cells expressing ENT1 were purchased from ATCC; host or cells: JAR cells
T1 sequence (Q99808 1-456): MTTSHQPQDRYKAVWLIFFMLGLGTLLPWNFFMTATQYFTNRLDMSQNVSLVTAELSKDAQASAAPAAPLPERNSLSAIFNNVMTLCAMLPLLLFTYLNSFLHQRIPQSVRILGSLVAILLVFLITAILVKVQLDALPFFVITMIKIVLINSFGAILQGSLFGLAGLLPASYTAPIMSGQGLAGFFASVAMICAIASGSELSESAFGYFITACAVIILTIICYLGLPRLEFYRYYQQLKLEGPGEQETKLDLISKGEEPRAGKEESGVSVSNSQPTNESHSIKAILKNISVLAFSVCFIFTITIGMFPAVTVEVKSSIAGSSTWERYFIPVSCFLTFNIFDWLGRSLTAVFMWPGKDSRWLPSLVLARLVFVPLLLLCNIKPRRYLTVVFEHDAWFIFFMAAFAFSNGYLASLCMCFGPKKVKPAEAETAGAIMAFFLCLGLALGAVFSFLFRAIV
Assay: ENT1 binding assay (competition with Sahenta-DY647 on JAR cells)
Settings: IC50 categorized
Summary of the method: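 Whole-cell competition on JAR cells (native ENT1): 50,000 cells pre-incubated 30 min at 4 °C with compound in HBSS/10 mM Hepes/0.1% BSA, then 100 nM Sahenta-DY647 added for 30 min at 4 °C. After washing, fluorescence (Ex 630/Em 670 nm) read; IC50 from sigmoidal fit, averaged as pIC50.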

[1] = competition with SAHENTA-DY647 binding, read-out: Binding Assay IC50

| SMILES | IC50 [1] | IC50 (Binding Assay IC50, competition with SAHENTA-DY647 binding) |
| --- | --- | --- |
| C[C@H]1O[C@@H](n2cnc3c(OCCc4ccc(OCF)nc4)ncnc32)[C@H](O)[C@@H]1O [Compound 336] | > 500 nM |  |
| C[C@H]1O[C@@H](n2cnc3c(-c4noc(-c5ccc([N+](=O)[O-])cc5)n4)ncnc32)[C@H](O)[C@@H]1O [Compound 421] | > 500 nM |  |
| C[C@H]1O[C@@H](n2c(NC3CCCC3)nc3c(OCc4ccc(Cl)cc4)ncnc32)[C@H](O)[C@@H]1O [Compound 91] | 1 to 20 nM |  |
| C[C@H]1O[C@@H](n2c(Nc3cn[nH]c3)nc3c(OCc4ccc([N+](=O)[O-])cc4)ncnc32)[C@H](O)[C@@H]1O [Compound 35] | < 1 nM |  |
| C[C@H]1O[C@@H](n2c(NCC3CCOC3)nc3c(OCc4ccc(Cl)cc4)ncnc32)[C@H](O)[C@@H]1O (some centres unmarked) [Compound 110] | 20 to 500 nM |  |
| C[C@H]1O[C@@H](n2cnc3c(OCCc4ccc(S(C)(=O)=O)cc4)ncnc32)[C@H](O)[C@@H]1O [Compound 344] | > 500 nM |  |
| C[C@H]1O[C@@H](n2cnc3c(CCc4ccc([N+](=O)[O-])cc4)ncnc32)[C@H](O)[C@@H]1O [Compound 210] | 20 to 500 nM |  |
| C[C@H]1O[C@@H](n2cnc3c(OCc4ccccc4S(C)(=O)=O)ncnc32)[C@H](O)[C@@H]1O [Compound 375] | > 500 nM |  |
| C[C@H]1O[C@@H](n2cnc3c(NCc4ccc5ncccc5c4)ncnc32)[C@H](O)[C@@H]1O [Compound 376] | > 500 nM |  |
| C[C@H]1O[C@@H](n2cnc3c(OCCc4cnc(C(F)F)nc4)ncnc32)[C@H](O)[C@@H]1O [Compound 404] | > 500 nM |  |
| CC(C)NC(=O)c1ccc(CNc2ncnc3c2ncn3[C@@H]2O[C@H](C)[C@@H](O)[C@H]2O)cc1 [Compound 386] | > 500 nM |  |
| O=[N+]([O-])c1ccc(CSc2ncnc3c2ncn3[C@@H]2O[C@H](CO)C[C@H]2O)cc1 [Compound 216] | 20 to 500 nM |  |
| C[C@H]1O[C@@H](n2cnc3c(SCc4ccc(OCC(F)(F)F)cc4)ncnc32)[C@H](O)[C@@H]1O [Compound 207] | 20 to 500 nM |  |
| C[C@H]1O[C@@H](n2cnc3c(NCc4ccc(OCCN(C)C)cc4)ncnc32)[C@H](O)[C@@H]1O [Compound 388] | > 500 nM |  |
| C[C@H]1O[C@@H](n2cnc3c(OCc4cccc(C(N)=O)c4)ncnc32)[C@H](O)[C@@H]1O [Compound 373] | > 500 nM |  |
| Cc1nccn1-c1ccc(COc2ncnc3c2ncn3[C@@H]2O[C@H](C)[C@@H](O)[C@H]2O)cc1 [Compound 381] | > 500 nM |  |
| C[C@H]1O[C@@H](n2cnc3c(C(=O)NCc4ccc5c(ccn5C)c4)ncnc32)[C@H](O)[C@@H]1O [Compound 351] | > 500 nM |  |
| C[C@H]1O[C@@H](n2cnc3c(NCc4ccc(N5CCOCC5)cc4)ncnc32)[C@H](O)[C@@H]1O [Compound 385] | > 500 nM |  |
| CC1OC(n2c(NC3CC(C)(O)C3)nc3c(OCc4ccc([N+](=O)[O-])cc4)ncnc32)C(O)C1O (single isomer, unassigned) [Compound 134] | < 1 nM |  |
| C[C@H]1O[C@@H](n2cnc3c(SCc4cccnn4)ncnc32)[C@H](O)[C@@H]1O [Compound 393] | > 500 nM |  |

| SMILES | IC50 [1] | IC50 (Binding Assay IC50, competition with SAHENTA-DY647 binding) |
| --- | --- | --- |
| C[C@H]1O[C@@H](n2cc(C(F)(F)F)c3c(SCc4ccc([N+](=O)[O-])cc4)ncnc32)[C@H](O)[C@@H]1O [Compound 163] | 20 to 500 nM |  |
| C[C@H]1O[C@@H](n2cnc3c(NCc4cccc(C(F)F)c4)ncnc32)[C@H](O)[C@@H]1O [Compound 318] | > 500 nM |  |
| C[C@H]1O[C@@H](n2c(NCC3COC3)nc3c(OCc4ccc(OC(F)F)cc4)ncnc32)[C@H](O)[C@@H]1O [Compound 424] | > 500 nM |  |
| C[C@H]1O[C@@H](n2c(-c3cnn(C)c3)nc3c(OCc4ccc([N+](=O)[O-])cc4)ncnc32)[C@H](O)[C@@H]1O [Compound 13] | 20 to 500 nM |  |
| C[C@H]1O[C@@H](n2cnc3c(NCc4ccc(C(=O)N(C)C)cc4)ncnc32)[C@H](O)[C@@H]1O [Compound 370] | > 500 nM |  |
| C[C@H]1O[C@@H](n2cnc3c(C(=O)N4CCCC4c4ccccc4)ncnc32)[C@H](O)[C@@H]1O (some centres unmarked) [Compound 253] | > 500 nM |  |
| O=[N+]([O-])c1ccc(COc2ncnc3c2ncn3[C@@H]2O[C@H](CO)[C@@H](O)C2(F)F)cc1 [Compound 220] | > 500 nM |  |
| C[C@H]1O[C@@H](n2c(N[C@H]3CC[C@](C)(O)CC3)nc3c(OCc4ccc(F)cc4)ncnc32)[C@H](O)[C@@H]1O [Compound 129] | 1 to 20 nM |  |
| CC1OC(n2c(NC3CC(C)(O)C3)nc3c(N4CCc5ccc([N+](=O)[O-])cc5C4)ncnc32)C(O)C1O (single isomer, unassigned) [Compound 141] | < 1 nM |  |
| C[C@H]1O[C@@H](n2cnc3c(COc4ccc(Cl)cc4)ncnc32)[C@H](O)[C@@H]1O [Compound 285] | > 500 nM |  |
| C[C@H]1O[C@@H](n2c(NC3CCS(=O)(=O)CC3)nc3c(N4CCc5ccccc5C4)ncnc32)[C@H](O)[C@@H]1O [Compound 181] | 20 to 500 nM |  |
| C[C@H]1O[C@@H](n2cnc3c(C(=O)N(C)Cc4ccc([N+](=O)[O-])cc4)ncnc32)[C@H](O)[C@@H]1O [Compound 406] | > 500 nM |  |
| CC(=O)c1ccc(COc2ncnc3c2ncn3[C@@H]2O[C@H](C)[C@@H](O)[C@H]2O)cc1 [Compound 245] | > 500 nM |  |
| CC(CCO)Nc1nc2c(OCc3ccc(Cl)cc3)ncnc2n1[C@@H]1O[C@H](C)[C@@H](O)[C@H]1O (some centres unmarked) [Compound 97] | 1 to 20 nM |  |
| C[C@H]1O[C@@H](n2cnc3c(SCc4ccc(C#N)cn4)ncnc32)[C@H](O)[C@@H]1O [Compound 257] | > 500 nM |  |
| C[C@H]1O[C@@H](n2c(N[C@H]3C[C@H](O)C3)nc3c(OCc4ccc(C#N)cc4)ncnc32)[C@H](O)[C@@H]1O [Compound 50] | < 1 nM |  |
| C[C@H]1O[C@@H](n2cnc3c(OCCc4ccc([N+](=O)[O-])nc4)ncnc32)[C@H](O)[C@@H]1O [Compound 248] | > 500 nM |  |
| C[C@H]1O[C@@H](n2cnc3c(C(=O)NCc4ccc(C#N)c(F)c4)ncnc32)[C@H](O)[C@@H]1O [Compound 369] | > 500 nM |  |
| C[C@H]1O[C@@H](n2cnc3c(C(=O)N4CCc5cc([N+](=O)[O-])ccc5C4)ncnc32)[C@H](O)[C@@H]1O [Compound 302] | > 500 nM |  |
| C[C@H]1O[C@@H](n2cnc3c(=O)n(Cc4ccc([N+](=O)[O-])cc4)ccc32)[C@H](O)[C@@H]1O [Compound 415] | > 500 nM |  |

| SMILES | IC50 [1] | IC50 (Binding Assay IC50, competition with SAHENTA-DY647 binding) |
| --- | --- | --- |
| C[C@H]1O[C@@H](n2cnc3c(NCc4ccc(-n5ccnn5)cc4)ncnc32)[C@H](O)[C@@H]1O [Compound 326] | > 500 nM |  |
| C[C@H]1O[C@@H](n2cnc3c(SCc4ccc(C(=O)O)cc4)ncnc32)[C@H](O)[C@@H]1O [Compound 409] | > 500 nM |  |
| C[C@H]1O[C@@H](n2cnc3c(SCc4nc5ccccc5o4)ncnc32)[C@H](O)[C@@H]1O [Compound 392] | > 500 nM |  |
| CN(C)C(=O)[C@H]1O[C@@H](n2cnc3c(OCc4ccc([N+](=O)[O-])cc4)ncnc32)[C@H](O)[C@@H]1O [Compound 329] | > 500 nM |  |
| C[C@H]1O[C@@H](n2c(N[C@H]3CC[C@H](O)CC3)nc3c(N4CCc5ccccc5C4)ncnc32)[C@H](O)[C@@H]1O [Compound 171] | 20 to 500 nM |  |
| CCNc1nc2c(OCc3ccc(OC(F)F)cc3)ncnc2n1[C@@H]1O[C@H](C)[C@@H](O)[C@H]1O [Compound 38] | 1 to 20 nM |  |
| C[C@H]1O[C@@H](n2cnc3c(NCc4ccccc4C(N)=O)ncnc32)[C@H](O)[C@@H]1O [Compound 374] | > 500 nM |  |
| C[C@H]1O[C@@H](n2cnc3c(OCc4c(F)cc(C#N)cc4F)ncnc32)[C@H](O)[C@@H]1O [Compound 269] | > 500 nM |  |
| C[C@H]1O[C@@H](n2cnc3c(OCc4ccc([N+](=O)[O-])cc4)nc(Cl)nc32)[C@H](O)[C@@H]1O [Compound 222] | > 500 nM |  |
| COc1ccc(COc2ncnc3c2ncn3[C@@H]2O[C@H](C)[C@@H](O)[C@H]2O)cc1 [Compound 231] | > 500 nM |  |
| C[C@H]1O[C@@H](n2cnc3c(C(=O)N4CC(c5ccc([N+](=O)[O-])cc5)C4)ncnc32)[C@H](O)[C@@H]1O [Compound 266] | > 500 nM |  |
| C[C@H]1O[C@@H](n2cnc3c(C(=O)N4CCC(c5ccc([N+](=O)[O-])cc5)C4)ncnc32)[C@H](O)[C@@H]1O (some centres unmarked) [Compound 419] | > 500 nM |  |
| C[C@H]1OC(n2cnc3c(COc4ccc(OC(F)F)cc4)ncnc32)[C@H](O)[C@@H]1O (some centres unmarked) [Compound 233] | > 500 nM |  |
| C[C@H]1O[C@@H](n2cnc3c(NCc4ccc5c(c4)CCC5)ncnc32)[C@H](O)[C@@H]1O [Compound 322] | > 500 nM |  |
| CNc1nc2c(OCc3ccc([N+](=O)[O-])cc3)ncnc2n1[C@@H]1O[C@H](C)[C@@H](O)[C@H]1O [Compound 19] | 20 to 500 nM |  |
| C[C@H]1O[C@@H](n2cnc3c(SCc4ccccc4)ncnc32)[C@H](O)[C@@H]1O [Compound 224] |  | > 500 nM |
| C[C@H]1O[C@@H](n2cnc3c(SCc4ccc(C(F)(F)F)nc4)ncnc32)[C@H](O)[C@@H]1O [Compound 270] | > 500 nM |  |
| C[C@H]1O[C@@H](n2c(N[C@H]3CC[C@@](C)(O)CC3)nc3c(OCc4ccc(C(F)(F)F)cc4)ncnc32)[C@H](O)[C@@H]1O [Compound 126] | 1 to 20 nM |  |
| C[C@H]1O[C@@H](n2c(NCC3CCC(F)(F)CC3)nc3c(OCc4ccc(C#N)cc4)ncnc32)[C@H](O)[C@@H]1O [Compound 106] | 1 to 20 nM |  |
